Results taken from patent publication US20250268920A1, “USE OF ANDROGEN RECEPTOR-MEDIATED MECHANISMS IN THE TREATMENT OF ACUTE MYELOID LEUKEMIA” (The Penn State Research Foundation, priority 2022, published 2025).
Where two headings read alike, the source gives them in different places.

Tests used:
P70 S6K = assay: In vitro treatment of female AML cells: phosphorylation of downstream target P70 S6K; type: cell-based, mouse; conditions: isolated female AML cells treated in vitro (FIG. 4A)
Text: (§1) To obtain the results shown in FIG. 1, we isolated bone marrow cells from CD45.1 male mice (FIG. 1A) and CD45.1 female mice (FIG. 1B). Bone marrow cells were applied to hematopoietic stem/progenitor cell isolation using a kit (EasySep™ mouse hematopoietic progenitor cell isolation kit, […], Catalog #19856) followed by red blood cell lysis. Lineage negative (Lin^−) cells were stained with fluorescent antibodies including Sca-1 and c-Kit and then sent to a Beckman Coulter MoFlo Astrios EQ Cell Sorter for sorting Sca-1^+c-Kit^+ cells. These cells were cultured in a CO2 incubator at 37° C. in the presence of MLL-AF9 virus (for AML) for six hours and then injected retro-orbitally into CD45.2 recipient mice. Recipients received sublethal irradiation (475 rads) and 1.5˜3.5×10^5 Lin^−Sca-1^+c-Kit^+ hematopoietic stem cells (HSCs). Mice were monitored for complete cell counts by bleeding retro-orbitally one month post transplantation. Retro-orbital bleeding was performed weekly.
(§2) To obtain the results, isolated female AML cells were treated in vitro with PI3K inhibitors (LY294002 and Wortmannin), Akt inhibitor, MTOR inhibitors (Sapanisertib and Torin1).

female AML cells = assay: In vitro apoptosis of female AML cells (Annexin V staining); type: cell-based, mouse; conditions: Annexin V staining (FIG. 4B, 4C)
Text: as §1, §2

female AML donor cells [1] = assay: In vivo ARN509 alone or combined with finasteride in male mice transplanted with female AML donor cells; conditions: single ARN509 10 mg/kg/d i.p. for two weeks; male recipients
Description: (FIG. 11A) At one week post 2° transplantation of female AML donors into male recipients, the mice were treated with vehicle (PBS), ARN509 (10 mg/kg/d, i.p. injection), or combination of ARN509 (10 mg/kg/d, i.p. injection) and finasteride (20 mg/kg/d, i.p. injection), for two weeks.

female AML donor cells [2] = type: in vivo, mice
Text: as §1
To address if ARN509 therapy preferentially benefitted AML in female mice, we performed an experiment in which male recipient mice transplanted with female AML donors cells were treated with AR antagonist, ARN509.
(FIG. 8A) Following one week post 2° transplantation of AML cells from female donors into male recipients, we treated the mice with ARN509 (0, 10, 25 mg/kg/d, i.p. injection) for two weeks.

female AML donor cells [3] = assay: Survival of male recipients transplanted with female AML donors treated in vitro with ARN509; type: in vivo, mice; conditions: female AML donors treated in vitro with ARN509 150 nM, 24 h, transplanted into male recipients (FIG. 8J)
female AML donor cells [4] = assay: Survival of female recipients transplanted with female AML donors treated in vitro with ARN509; type: in vivo, mice; conditions: female AML donors treated in vitro with ARN509 150 nM, 24 h, transplanted into female recipients (FIG. 7J)
female AML donor cells [5] = type: in vivo, mice; remark: listed apart in the source
Text: as §1
To test the effect of AR inhibition on the outcome of AML, we utilized the AR antagonist, ARN509, to treat female mice transplanted with female AML donor cells. (FIG. 7A) Following one week post-secondary) (2° transplantation of AML cells from female donors into female recipients, the recipient mice were treated with ARN509 (0, 10, 25 mg/kg/d, i.p. injection) daily for two weeks.

female AML donor cells [6] = assay: In vivo finasteride treatment of female mice transplanted with female AML donor cells
Description: To mirror the patient scenario, we performed the experiment on female recipients transplanted with female AML donor cells.
(FIG. 12A) At one week after 2° transplantation of female AML donors to female recipients, we treated the mice with vehicle (PBS) or finasteride (20 mg/kg/d, i.p. injection) for two weeks.

male AML donor cells = assay: In vivo finasteride treatment of male mice transplanted with male AML donor cells; conditions: for Survival: male AML donors (FIG. 10J)
Text: as §1
(FIG. 10A) Upon 2° transplantation of male AML donors to male recipients, the recipient mice were treated with vehicle (PBS) or finasteride (50 mg/kg/d, i.p. injection) for one week. Then at three weeks post transplantation, mice were euthanized. […] Moreover, to observe the therapeutic effect of finasteride, we treated male recipients transplanted with male AML donors (mirroring the clinical patients) with in vivo finasteride for two weeks or extended it to four weeks (FIG. 10I). […] Thus, the disclosure includes adjusting the treatment period for male (and female) AML patients.

[7] = finasteride 20 mg/kg/d i.p. for two weeks, female recipients
[8] = finasteride 50 mg/kg/d i.p. for one week, male recipients

Q: With `CCC(=O)N1CCN(c2ccc(-n3c(=O)ccc4cnc5ccc(-c6cnc7ccccc7c6)cc5c43)cc2C(F)(F)F)CC1` [Torin1] as the molecule, how does the “Phosphorylation of the downstream target P70 S6K” value (P70 S6K) read?
A: down-regulated

Q: And the “Apoptosis of female AML cells” value (female AML cells)?
A: induced apoptosis of female AML cells significantly

Q: `CNC(=O)c1ccc(N2C(=S)N(c3cnc(C#N)c(C(F)(F)F)c3)C(=O)C23CCC3)cc1F` [ARN509, Apalutamide] was tested. Which Anti-leukemic effect (female AML donor cells [1]) did it give?
A: not able to induce significant anti-leukemic effect

Q: And the “Lin− leukemic cells in the bone marrow” value (female AML donor cells [2]; 25 mg/kg/d ARN509, male recipients (FIG. 8D))?
A: decreased significantly

Q: What about the “Lin− leukemic cells in the spleen” value (female AML donor cells [2]; 25 mg/kg/d ARN509, male recipients (FIG. 8E)) of the same molecule?
A: decreased significantly

Q: And the “LICs (leukemia-initiating cells)” value (female AML donor cells [2]; 25 mg/kg/d ARN509, male recipients (FIG. 8F, 8G))?
A: decreased significantly

Q: And the “Severity of AML” value (female AML donor cells [2]; ARN509 0, 10, 25 mg/kg/d i.p. for two weeks from one week post transplantation, male recipients)?
A: decreased the severity of AML in a dose-dependent manner

Q: What about the Leukocytosis (female AML donor cells [2]; ARN509 0, 10, 25 mg/kg/d i.p., two weeks, male recipients (FIG. 8B)) of the same molecule?
A: improved leukocytosis

Q: What about the Splenomegaly (female AML donor cells [2]; ARN509 0, 10, 25 mg/kg/d i.p., two weeks, male recipients (FIG. 8C)) of the same molecule?
A: improved

Q: And the Body weight (female AML donor cells [2]; mouse, in vivo)?
A: unchanged

Q: And the “Platelets in the peripheral blood” value (female AML donor cells [2]; mouse, in vivo)?
A: increase

Q: And the Side effects (female AML donor cells [2]; mouse, in vivo)?
A: no apparent side effects

Q: And the “Apoptosis of female AML cells” value (female AML cells)?
A: led to apoptosis of female AML cells

Q: What about the Survival (female AML donor cells [3]) of the same molecule?
A: some improvement of survival

Q: What about the Survival (female AML donor cells [4]) of the same molecule?
A: significantly better survival

Q: And the “Lin− leukemic cells in the bone marrow” value (female AML donor cells [5]; 25 mg/kg/d ARN509, female recipients (FIG. 7D))?
A: decreased significantly

Q: What about the “Lin− leukemic cells in the spleen” value (female AML donor cells [5]; 25 mg/kg/d ARN509, female recipients (FIG. 7E)) of the same molecule?
A: decreased significantly

Q: And the “LICs (leukemia-initiating cells)” value (female AML donor cells [5]; 25 mg/kg/d ARN509, female recipients (FIG. 7F, 7G))?
A: decreased significantly

Q: What about the “Severity of AML” value (female AML donor cells [5]; ARN509 0, 10, 25 mg/kg/d i.p. daily for two weeks from one week post transplantation, female recipients) of the same molecule?
A: decreased the severity of AML in a dose-dependent manner

Q: And the Leukocytosis (female AML donor cells [5]; ARN509 0, 10, 25 mg/kg/d i.p., two weeks, female recipients (FIG. 7B))?
A: improved leukocytosis

Q: What about the Splenomegaly (female AML donor cells [5]; ARN509 0, 10, 25 mg/kg/d i.p., two weeks, female recipients (FIG. 7C)) of the same molecule?
A: improved

Q: And the “Platelets in the peripheral blood” value (female AML donor cells [5]; mouse, in vivo)?
A: increase

Q: And the Side effects (female AML donor cells [5]; mouse, in vivo)?
A: no apparent side effects

Q: How did the Leukocytosis (female AML donor cells [6]; finasteride 20 mg/kg/d i.p. for two weeks from one week after transplantation, female recipients (FIG. 12B)) turn out when `CC(C)(C)NC(=O)[C@H]1CC[C@H]2[C@@H]3CC[C@H]4NC(=O)C=C[C@]4(C)[C@H]3CC[C@]12C` [finasteride, Finasteride] was run?
A: significantly improve

Q: And the “LICs in the bone marrow” value (female AML donor cells [6]; [7])?
A: decreased

Q: And the “LICs in the spleen” value (female AML donor cells [6]; [7])?
A: decreased

Q: What about the “Lin− leukemic cells in the bone marrow” value (female AML donor cells [6]; [7]) of the same molecule?
A: decreased

Q: What about the “Lin− leukemic cells in the spleen” value (female AML donor cells [6]; [7]) of the same molecule?
A: decreased

Q: And the Splenomegaly (female AML donor cells [6]; finasteride 20 mg/kg/d i.p. for two weeks, female recipients (FIG. 12C))?
A: significantly improve

Q: What about the Survival (female AML donor cells [6]; in vivo finasteride treatment, female recipients, female AML donors (FIG. 12K)) of the same molecule?
A: benefitted the survival

Q: And the “Generation of DHT” value (male AML donor cells; finasteride 50 mg/kg/d i.p. for one week, euthanized three weeks post transplantation (FIG. 10B))?
A: decreased generation of DHT

Q: What about the “LICs in the bone marrow” value (male AML donor cells; [8]) of the same molecule?
A: decreased

Q: What about the “LICs in the spleen” value (male AML donor cells; [8]) of the same molecule?
A: decreased

Q: And the “Lin− leukemic cells in the bone marrow” value (male AML donor cells; [8])?
A: decreased

Q: And the “Lin− leukemic cells in the spleen” value (male AML donor cells; [8])?
A: decreased

Q: What about the Leukocytosis (male AML donor cells; finasteride 50 mg/kg/d i.p. for one week, male recipients (FIG. 10C)) of the same molecule?
A: significantly improved

Q: What about the Splenomegaly (male AML donor cells; finasteride 50 mg/kg/d i.p. for one week, male recipients (FIG. 10D)) of the same molecule?
A: significantly improved

Q: What about the Survival (male AML donor cells; four-week in vivo finasteride treatment, male recipients) of the same molecule?
A: significantly improved the survival

Q: And the Survival (male AML donor cells; two-week in vivo finasteride treatment, male recipients)?
A: partially benefited the survival
